Measurements as given in BindingDB's records for doi:10.1111/j.1747-0285.2008.00752.x (Universitat Aut&Ogravenoma De Barcelona, 2009).
pKi: −log10 of the molar value.

How the values were obtained:
Assay in all cases: Inhibition Assay
Carboxypeptidase B = biological target: T1, Carboxypeptidase B (Helicoverpa zea, UniProt Q3T905)
T1 sequence (Q3T905 whole entry): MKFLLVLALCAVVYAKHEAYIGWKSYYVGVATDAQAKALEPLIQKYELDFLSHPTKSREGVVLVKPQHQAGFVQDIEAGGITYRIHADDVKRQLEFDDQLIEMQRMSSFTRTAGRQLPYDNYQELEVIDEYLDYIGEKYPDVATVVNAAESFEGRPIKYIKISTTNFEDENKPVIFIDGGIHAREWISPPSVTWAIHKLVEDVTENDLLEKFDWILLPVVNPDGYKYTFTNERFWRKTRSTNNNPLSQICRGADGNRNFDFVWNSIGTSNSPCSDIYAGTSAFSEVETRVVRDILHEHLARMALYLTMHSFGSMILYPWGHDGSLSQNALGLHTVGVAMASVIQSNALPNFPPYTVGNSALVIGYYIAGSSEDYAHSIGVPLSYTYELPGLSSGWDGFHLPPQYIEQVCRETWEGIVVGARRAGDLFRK
Text: (§1) The aromatic compounds screening were characterized by molecular docking as well as by in vitro inhibition assay against carboxypeptidase(CPs) of different specifications and natural origin.

Carboxypeptidase A1 = biological target: T2, Carboxypeptidase A1 (Bos taurus, UniProt P00730)
T2 sequence (P00730 whole entry): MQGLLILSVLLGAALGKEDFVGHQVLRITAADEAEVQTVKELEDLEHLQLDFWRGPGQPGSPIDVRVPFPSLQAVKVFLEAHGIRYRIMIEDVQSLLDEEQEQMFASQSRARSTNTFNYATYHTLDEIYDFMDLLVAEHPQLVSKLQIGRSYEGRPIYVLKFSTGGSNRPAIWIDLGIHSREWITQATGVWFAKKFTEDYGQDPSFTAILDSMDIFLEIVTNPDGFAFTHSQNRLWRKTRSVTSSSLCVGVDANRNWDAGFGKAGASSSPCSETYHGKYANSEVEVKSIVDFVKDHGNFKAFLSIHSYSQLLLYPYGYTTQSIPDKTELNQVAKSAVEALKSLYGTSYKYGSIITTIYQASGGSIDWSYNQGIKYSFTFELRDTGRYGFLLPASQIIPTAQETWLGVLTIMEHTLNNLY
Text: as §1

Carboxypeptidase B2 = biological target: T3, Carboxypeptidase B2 (Homo sapiens, UniProt Q96IY4)
T3 sequence (Q96IY4 whole entry): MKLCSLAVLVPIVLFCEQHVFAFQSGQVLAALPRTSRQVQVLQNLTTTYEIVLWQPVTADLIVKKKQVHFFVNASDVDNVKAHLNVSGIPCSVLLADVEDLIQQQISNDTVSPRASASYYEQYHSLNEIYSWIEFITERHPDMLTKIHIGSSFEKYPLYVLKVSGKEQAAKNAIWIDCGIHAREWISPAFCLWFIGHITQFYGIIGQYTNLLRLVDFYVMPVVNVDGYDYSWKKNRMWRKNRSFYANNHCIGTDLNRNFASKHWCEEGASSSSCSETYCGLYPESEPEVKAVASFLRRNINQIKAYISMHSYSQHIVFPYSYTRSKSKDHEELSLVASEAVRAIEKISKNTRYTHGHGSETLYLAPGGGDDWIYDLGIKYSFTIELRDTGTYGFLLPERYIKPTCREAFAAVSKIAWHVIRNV
Text: as §1

pKi (Carboxypeptidase B)	pKi (Carboxypeptidase A1)	pKi (Carboxypeptidase B2)	SMILES
4.46	4.98	4.93	O=C(O)CCSc1nnc(COc2cccc3ccccc23)n1-c1ccccc1 [3-(5-((naphthalen-1-yloxy)methyl)-4-pheny-4H-1,2,4-triazol-3-ythio)propanoic acid, 8]
4.69	3.38	4.65	COc1ccc2[nH]c(=O)c(CN(CCO)C(=S)Nc3ccc(C)cc3)cc2c1 [1-(2-hydroxyethyl)-1-((6-methoxy-2-oxo-1,2-dihydroquinolin-3-yl)methyl)3-yl)methyl)-3-p-tolythiourea, 7]
3.89	3.54	3.84	Nc1nccc2ccc(CC(N)C(=O)O)cc12 (stereo not given) [2-amino-3-(1-aminoisoquinolin-7-yl)propanoic acid, 2]
4.21	3.28	4.49	O=C(Cn1nnc(-c2cccs2)n1)N1CCc2ccccc2C1 [1-(3,4-dihydroisoquinolin-2(1H)-yl)-2-(5thiophen-2-yl)-2H-tetrazol-2-yl)ethanone, 3]
4.09	4.43	4.84	O=c1[nH]c(CN(Cc2ccccc2)S(=O)(=O)c2ccc(F)cc2)nc2ccccc12 [N-benzyl-4-fluoro-N-((4-hydroxyquinazolin-2-yl)methylbenzensulfonamide, 9]
5.80	4.24	5.72	Cc1ccc(C(=O)CSc2nnc(COc3ccc4ccccc4c3)o2)cc1 [2-(5-(naphthalen-2-yloxy)methyl)-1,3,4-oxadiazol-2-ylthio)-1-p-tolylethanone, 5]
6.24	5.42	5.80	Cc1ccc2[nH]c(=O)c(CN(Cc3cccs3)C(=S)NC(C)c3ccccc3)cc2c1 (stereo not given) [1-((6-methyl-2-oxo-1,2-dihydroquinolin-3-yl)methyl)-3-(1-phenylethyl)-1-(thiophen-2-ylmethyl)thiourea, 10]
4.85	4.49	4.30	Cc1ccc(C(=O)CSc2nnc(COc3cccc4cccnc34)o2)cc1 [1-(4-methylphenyl)-2-[[5-(8-quinolinyloxymethyl)-1,3,4-oxadiazol-2-yl]thio]ethanone]
4.00	3.55	3.66	Nc1nccc2cc(CC(N)C(=O)O)ccc12 (stereo not given) [2-Amino-3-(1-aminoisoquinolin-6-yl)propanoic acid, 1]
5.92	4.82	4.88	COC(=O)c1ccccc1NC(=S)N(Cc1ccco1)Cc1cc2cccc(C)c2[nH]c1=O [methyl 2-(3-furan-2-ylmethyl)-3-((8-methyl-2-oxo-1,2,-dihydroquinolin-3-yl)methyl)thioureido)benzoate, 11]
